Assay results reported in patent publication US20050048508A1, “Trehalose receptor and method for detecting trehalose with the same” (KABUSHIKI KAISHA HAYASHIBARA SEIBUTSU KAGAKU KENKYUJO, priority 2002, published 2005).

Target: T1, T1R2 and T1R3 with G protein α-subunits (α15 and α16/Z chimeric protein) (Mus musculus, UniProt Q925D8+Q925I4, E350G/G527D/I706N/P352R/R175Q)
T1 construct: expressed in transfected cells; host or cells: 293 cells, RCB 1637 (human embryonic kidney)
T1 sequence (Q925I4 20-843 R175Q/E350G/P352R/G527D): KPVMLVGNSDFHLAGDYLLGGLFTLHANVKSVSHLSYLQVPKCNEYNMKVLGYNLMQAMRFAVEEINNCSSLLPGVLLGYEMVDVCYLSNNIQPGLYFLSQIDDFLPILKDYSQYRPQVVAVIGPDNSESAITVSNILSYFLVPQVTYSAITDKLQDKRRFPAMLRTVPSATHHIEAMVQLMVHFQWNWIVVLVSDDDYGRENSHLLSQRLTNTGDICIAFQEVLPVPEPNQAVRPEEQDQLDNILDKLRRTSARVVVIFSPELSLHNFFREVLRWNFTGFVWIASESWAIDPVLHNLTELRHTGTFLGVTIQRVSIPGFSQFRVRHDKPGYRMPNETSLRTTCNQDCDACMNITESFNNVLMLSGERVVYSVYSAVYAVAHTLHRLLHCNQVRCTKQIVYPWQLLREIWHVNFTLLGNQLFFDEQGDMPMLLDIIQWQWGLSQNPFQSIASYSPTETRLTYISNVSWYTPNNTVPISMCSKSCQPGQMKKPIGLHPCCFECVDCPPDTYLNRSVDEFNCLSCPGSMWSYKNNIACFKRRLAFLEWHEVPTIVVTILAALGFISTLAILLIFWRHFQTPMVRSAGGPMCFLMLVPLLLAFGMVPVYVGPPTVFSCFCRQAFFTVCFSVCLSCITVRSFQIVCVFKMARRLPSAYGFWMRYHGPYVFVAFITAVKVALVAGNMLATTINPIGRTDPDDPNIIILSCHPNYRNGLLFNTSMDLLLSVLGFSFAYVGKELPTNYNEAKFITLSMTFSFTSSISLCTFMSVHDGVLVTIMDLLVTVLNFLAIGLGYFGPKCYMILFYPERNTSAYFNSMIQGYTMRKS
T1 sequence (Q925D8 21-858 I706N): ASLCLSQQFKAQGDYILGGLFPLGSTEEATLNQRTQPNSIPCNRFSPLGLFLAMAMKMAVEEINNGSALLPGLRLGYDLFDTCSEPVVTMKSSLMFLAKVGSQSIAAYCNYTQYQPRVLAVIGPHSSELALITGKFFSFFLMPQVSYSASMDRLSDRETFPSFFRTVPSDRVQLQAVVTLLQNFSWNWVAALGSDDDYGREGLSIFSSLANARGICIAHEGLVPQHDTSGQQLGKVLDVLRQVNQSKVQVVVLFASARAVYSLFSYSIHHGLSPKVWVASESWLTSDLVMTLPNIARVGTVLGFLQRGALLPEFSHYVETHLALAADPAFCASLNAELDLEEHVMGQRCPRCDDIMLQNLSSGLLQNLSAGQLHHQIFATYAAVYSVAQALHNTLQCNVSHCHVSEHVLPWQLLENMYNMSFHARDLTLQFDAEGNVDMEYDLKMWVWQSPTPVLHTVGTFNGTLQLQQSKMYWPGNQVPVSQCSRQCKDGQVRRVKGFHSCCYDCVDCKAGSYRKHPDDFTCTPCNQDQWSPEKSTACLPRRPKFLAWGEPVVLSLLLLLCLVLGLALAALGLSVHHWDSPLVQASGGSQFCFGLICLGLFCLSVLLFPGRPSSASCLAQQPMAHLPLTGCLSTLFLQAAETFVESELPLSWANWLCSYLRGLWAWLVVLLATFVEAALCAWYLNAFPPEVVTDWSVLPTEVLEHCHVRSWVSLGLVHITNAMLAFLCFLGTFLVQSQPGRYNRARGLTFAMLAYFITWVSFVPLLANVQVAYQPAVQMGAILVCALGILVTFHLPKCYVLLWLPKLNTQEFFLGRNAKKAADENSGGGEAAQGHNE
Test: Intracellular calcium ion assay, 293 cells coexpressing G protein α-subunits, T1R2 and T1R3
Assay type: cell-based
Settings: 293 cells: T1R2 + T1R3 + G protein α-subunits, 0.67 ml of 1 M saccharide solution added to 2 ml cell suspension, FLUO-4 AM
Protocol: The coexpression vector for the G protein α-subunit α15 and the G protein α16/Z chimeric protein (hereinafter designated as “G protein α-subunits”) obtained in Example 1-3 was gene transferred to 293 cells, RCB 1637, a human embryonic kidney cell line, available from the Riken Bioresource Center, Ibaraki, Japan, by conventional lipofection. The gene transferred cells were suspended in Dulbecco's Modified Eagle's Medium (D-MEM) supplemented with 1 mg/L of “PUROMYCIN”, a trade mane of puromycin commercialized by Edge Biosystems, MD, USA, and 10% (v/v) of fetal calf serum to give a cell density of 2×10^6 cells/ml and cultured in a plastic petri dish for cell culture. After 10 to 14 days of incubation, a puromycin-resistant cell colony was collected and confirmed its production of the G protein α-subunit proteins with an index of their mRNA level by conventional RT-PCR. Thus, a cell line capable of expressing the G protein α-subunit proteins was established. To the cells were gene transferred an expression vector for the sweet taste receptor protein T1R1, T1R2, or T1R3 in Example 2-2; or a coexpression vector for a pair of T1R1 and T1R2, T1R1 and T1R3, or T1R2 and T1R3 by conventional lipofection. The resulting cells were suspended in D-MEM supplemented with 1 mg/L of “PUROMYCIN”, 500 mg/L of “GENETICIN”, and 10% (v/v) of fetal calf serum and cultured in a plastic petri dish for cell culture. […]
The captioned reactivity test was conducted according to a conventional intracellular calcium ion assay: 293 Cells prepared in Example 3, capable of coexpressing the G protein α-subunits and the sweet taste receptor(s), were cultured in a plastic petri dish for cell culture until reaching its confluent phase. […] Two milliliters of the resultant cell suspension was injected into a glass cuvette, commercialized by Hitachi, Ltd., Tokyo, Japan, and analyzed on “HITACHI 650-40”, a fluorescence spectrophotometer commercialized by Hitachi, Ltd., Tokyo, Japan. […]

Influx of calcium ion	Influx of calcium ion (listed as sucrose)	Structure (SMILES)
Positive	detected	OC[C@H]1O[C@@](CO)(O[C@H]2O[C@H](CO)[C@@H](O)[C@H](O)[C@H]2O)[C@@H](O)[C@@H]1O [Sucrose, reference compound]
Positive	–	OC[C@H]1O[C@H](O[C@H]2O[C@H](CO)[C@@H](O)[C@H](O)[C@H]2O)[C@H](O)[C@@H](O)[C@@H]1O [Trehalose]
